Measurements taken from ChEMBL document CHEMBL6074668 (J Med Chem, 2024).

Columns and labels:
[1] = molecular target: T1, Alpha-1A adrenergic receptor (Homo sapiens, UniProt P35348); assay: Binding affinity to alpha1A adrenergic receptor (unknown origin) by radioligand displacement assay
T1 sequence (P35348 whole entry): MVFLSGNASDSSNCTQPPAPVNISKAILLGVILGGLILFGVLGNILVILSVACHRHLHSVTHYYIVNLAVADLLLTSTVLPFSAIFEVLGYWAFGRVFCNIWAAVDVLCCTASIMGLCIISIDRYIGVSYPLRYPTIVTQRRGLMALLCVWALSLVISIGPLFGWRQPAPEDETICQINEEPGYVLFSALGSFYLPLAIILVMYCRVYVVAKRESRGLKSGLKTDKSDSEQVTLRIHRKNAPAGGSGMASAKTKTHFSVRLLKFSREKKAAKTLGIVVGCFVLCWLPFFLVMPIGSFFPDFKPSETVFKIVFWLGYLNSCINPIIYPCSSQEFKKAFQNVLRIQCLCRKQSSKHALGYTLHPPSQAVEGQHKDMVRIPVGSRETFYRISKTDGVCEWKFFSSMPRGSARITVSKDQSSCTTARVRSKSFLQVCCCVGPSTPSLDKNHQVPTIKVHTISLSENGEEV

[2] = Binding affinity to alpha7 […] receptor (unknown origin) by radioligand displacement assay; design: species or system Homo sapiens
[3] = molecular target: Sodium-dependent noradrenaline transporter (Homo sapiens, UniProt P23975)
Description: Binding affinity to NET (unknown origin) by radioligand displacement assay

[4] = molecular target: T2, Alpha-2C adrenergic receptor (Homo sapiens, UniProt P18825); assay: Binding affinity to alpha2C adrenergic receptor (unknown origin) by radioligand displacement assay
T2 sequence (P18825 whole entry): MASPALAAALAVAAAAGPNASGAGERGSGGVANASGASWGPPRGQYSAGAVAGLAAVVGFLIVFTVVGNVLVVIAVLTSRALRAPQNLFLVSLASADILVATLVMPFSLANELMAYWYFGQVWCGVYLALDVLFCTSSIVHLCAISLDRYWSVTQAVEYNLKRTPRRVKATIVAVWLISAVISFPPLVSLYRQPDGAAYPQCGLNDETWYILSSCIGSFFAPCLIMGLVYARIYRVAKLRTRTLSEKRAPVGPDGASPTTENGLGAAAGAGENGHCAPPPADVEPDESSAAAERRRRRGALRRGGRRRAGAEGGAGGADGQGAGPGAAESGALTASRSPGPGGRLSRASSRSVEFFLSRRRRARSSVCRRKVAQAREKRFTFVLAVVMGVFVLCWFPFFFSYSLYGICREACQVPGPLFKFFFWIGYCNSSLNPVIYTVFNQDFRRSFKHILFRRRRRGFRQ

Sequence of Sodium-dependent noradrenaline transporter (P23975 whole entry): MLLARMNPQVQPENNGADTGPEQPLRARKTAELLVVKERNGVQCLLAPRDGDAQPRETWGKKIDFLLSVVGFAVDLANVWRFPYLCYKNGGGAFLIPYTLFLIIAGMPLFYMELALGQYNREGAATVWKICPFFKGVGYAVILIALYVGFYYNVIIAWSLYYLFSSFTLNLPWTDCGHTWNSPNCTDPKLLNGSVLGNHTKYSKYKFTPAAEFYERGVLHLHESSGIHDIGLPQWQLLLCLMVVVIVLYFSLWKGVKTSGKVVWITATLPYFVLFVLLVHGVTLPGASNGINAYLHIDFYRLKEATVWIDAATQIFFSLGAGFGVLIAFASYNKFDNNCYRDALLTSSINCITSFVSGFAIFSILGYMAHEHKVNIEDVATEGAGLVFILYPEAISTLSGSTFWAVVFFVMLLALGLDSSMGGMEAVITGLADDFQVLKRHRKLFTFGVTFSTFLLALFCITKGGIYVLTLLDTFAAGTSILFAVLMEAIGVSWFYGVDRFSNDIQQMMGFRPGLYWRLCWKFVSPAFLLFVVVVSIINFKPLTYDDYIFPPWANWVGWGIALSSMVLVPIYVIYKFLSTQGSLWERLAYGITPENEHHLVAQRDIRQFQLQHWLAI

`C/C=C1/CN2CC[C@]34C(=C(C(=O)OC)[C@H]1C[C@H]23)Nc1ccc(I)cc14` gave a Ki [1] of 0.883 µM, a Ki [2] of 5.49 µM and a Ki [3] of 3.44 µM. The Ki [4] was 2.86 µM.
